Data published in patent US20230391725A1, “MODULATORS OF THE INTEGRATED STRESS RESPONSE PATHWAY” (Evotec International GmbH, priority 2020, published 2023).
Where a name gives a salt, the structure may show the parent alone.

tested on: ATF4; assay: HEK-ATF4 High Content Imaging assay (prevention of Tunicamycin induced ISR); type: cell-based; settings: Homo sapiens, Wild-type HEK293 cells, 6 h incubation, ATF4 signal ratio between nucleus and cytoplasm
Method: Example compounds were tested in the HEK-ATF4 High Content Imaging assay to assess their pharmacological potency to prevent Tunicamycin induced ISR. Wild-type HEK293 cells were plated in 384-well imaging assay plates at a density of 12,000 cells per well in growth medium (containing DMEM/F12, 10% FBS, 2 mM L-Glutamine, 100 U/mL Penicillin—100 μg/mL Streptomycin) and incubated at 37° C., 5% CO2. 24 h later, the medium was changed to 50 μL assay medium per well (DMEM/F12, 0.3% FBS, 2mM L-Glutamine, 100 U/mL Penicillin—100 μg/mL Streptomycin). Example compounds were serially diluted in DMSO, spotted into intermediate plates and prediluted with assay medium containing 3.3 […] Tunicamycin to give an 11-fold excess of final assay concentration. In addition to the example compound testing area, the plates also contained multiples of control wells for assay normalization purposes, wells containing Tunicamycin but no example compounds (High control), as well as wells containing neither example compound nor Tunicamycin (Low control). The assay was started by transferring 5 μL from the intermediate plate into the assay plates, followed by incubation for 6 h at 37° C., 5% CO2. Subsequently, cells were fixed (4% PFA in PBS, 20 min at r.t.) and submitted to indirect ATF4 immunofluorescence staining (primary antibody rabbit anti ATF4, clone D4B8, Cell Signaling Technologies; secondary antibody Alexa Fluor 488 goat anti-rabbit IgG (H+L), Thermofisher Scientific). Nuclei were stained using Hoechst dye (Thermofisher Scientific), and plates were imaged on an Opera Phenix High Content imaging platform equipped with 405 nm and 488 nm excitation. Finally, images were analyzed using script based algorithms. The main readout HEK-ATF4 monitored the ATF4 signal ratio between nucleus and cytoplasm. Tunicamycin induced an increase in the overall ATF4 ratio signal, which was prevented by ISR modulating example compounds. In addition, HEK-CellCount readout was derived from counting the number of stained nuclei corresponding to healthy cells. This readout served as an internal toxicity control.

IC50 [nM]	Structure (SMILES)
500 to 2000	O=C(COc1ccc(Cl)c(F)c1)N[C@H]1CC[C@H](C(=O)Nc2cc(C(F)(F)F)cc(C(F)(F)F)c2)NC1 [Example 33, (2R,5S)-N-[3,5-bis(trifluoromethyl)phenyl]-5-[2-(4-chloro-3-fluorophenoxy)acetamido]piperidine-2-carboxamide]
500 to 2000	O=C(COc1ccc(Cl)c(F)c1)N[C@H]1CC[C@H](C(=O)Nc2cccc(OC(F)F)c2)NC1 [Example 30, (2R,5S)-5-[2-(4-chloro-3-fluorophenoxy)acetamido]-N-[3-(difluoromethoxy)phenyl]piperidine-2-carboxamide]
1 to 500	O=C(COc1ccc(Cl)c(F)c1)N[C@H]1CC[C@H](C(=O)Nc2cncc(C(F)(F)F)c2)NC1 [Example 22, (2R,5S)-5-[2-(4-chloro-3-fluorophenoxy)acetamido]-N-[5-(trifluoromethyl)pyridin-3-yl]piperidine-2-carboxamide]
500 to 2000	O=C(COc1ccc(Cl)c(F)c1)N[C@H]1CC[C@H](C(=O)N[C@@H]2CC[C@@H](OC(F)(F)F)C2)NC1 (single isomer, unassigned) [Example 54]
500 to 2000	O=C(COc1ccc(Cl)c(F)c1)N[C@H]1CC[C@H](C(=O)Nc2ccc(Cl)cn2)NC1 [Example 25, (2R,5S)-5-[2-(4-chloro-3-fluorophenoxy)acetamido]-N-(5-chloropyridin-2-yl)piperidine-2-carboxamide]
500 to 2000	O=C(COc1ccc(Cl)c(F)c1)N[C@H]1CC[C@H](C(=O)Nc2cccc(F)c2)NC1 [Example 23, (2R,5S)-5-[2-(4-chloro-3-fluorophenoxy)acetamido]-N-(3-fluorophenyl)piperidine-2-carboxamide]
1 to 500	Cn1nc(CNC(=O)[C@H]2CC[C@H](NC(=O)COc3ccc(Cl)c(F)c3)CN2)cc1C(F)(F)F [Example 42, (2R,5S)-5-[2-(4-chloro-3-fluorophenoxy)acetamido]-N-{[1-methyl-5-(trifluoromethyl)-1H-pyrazol-3-yl]methyl}piperidine-2-carboxamide]

Second part, the compound before the results:

Structure (SMILES)	IC50 [nM]
O=C(COc1ccc(Cl)c(F)c1)N[C@H]1CC[C@H](C(=O)Nc2cccc(OC(F)(F)F)c2)NC1 [Example 13, (2R,5S)-5-[2-(4-chloro-3-fluorophenoxy)acetamido]-N-[3-(trifluoromethoxy)phenyl]piperidine-2-carboxamide]	1 to 500
O=C(COc1ccc(Cl)c(F)c1)N[C@H]1CC[C@H](C(=O)NOCCOC(F)(F)F)NC1 [Example 6, (2R,5S)-5-[2-(4-chloro-3-fluorophenoxy)acetamido]-N-[2-(trifluoromethoxy)ethoxy]piperidine-2-carboxamide]	2000 to 15000
O=C(COc1ccc(Cl)c(F)c1)N[C@H]1CC[C@H](C(=O)NCCCOC(F)(F)F)NC1 [Example 2, (2R,5S)-5-[2-(4-chloro-3-fluorophenoxy)acetamido]-N-[3-(trifluoromethoxy)propyl]piperidine-2-carboxamide hydrochloride]	2000 to 15000
COc1cccc(NC(=O)[C@H]2CC[C@H](NC(=O)COc3ccc(Cl)c(F)c3)CN2)c1 [Example 20, (2R,5S)-5-[2-(4-chloro-3-fluorophenoxy)acetamido]-N-(3-methoxyphenyl)piperidine-2-carboxamide]	2000 to 15000
O=C(COc1ccc(Cl)c(F)c1)N[C@@H]1CC[C@@H](C(=O)Nc2ccc(Cl)cc2)NC1 [Example 9, (2S,5R)-5-[2-(4-chloro-3-fluorophenoxy)acetamido]-N-(4-chlorophenyl)piperidine-2-carboxamide]	2000 to 15000
O=C(COc1ccc(Cl)c(F)c1)N[C@H]1CC[C@H](C(=O)Nc2ccc(F)c(C(F)(F)F)c2)NC1 [Example 21, (2R,5S)-5-[2-(4-chloro-3-fluorophenoxy)acetamido]-N-[4-fluoro-3-(trifluoromethyl)phenyl]piperidine-2-carboxamide]	1 to 500
